Measurements published in patent publication EP3046573B1, “AMYLIN ANALOGUES” (Zealand Pharma A/S, priority 2013, dated 2015).
Like-named read-outs stand apart in the source and are kept apart here. Numbered stars: 1 amine (or outer) side, 2 acyl side, 3 side chain; on linkers, the order of the positions; unused ones are H or OH. Bridge positions count the residues as written; N and C are the ends. Square brackets hold non-standard residues; d marks the D form. Peptide text beside a SMILES is read from it. * marks the point of attachment. C20 diacid = O=C(O)CCCCCCCCCCCCCCCCCCC(=O)*; γGlu = O=C(O)[C@H](CCC(=O)[*:2])N[*:1]; Hyp = O=C(O)[C@@H]1C[C@@H](O)CN1; NMeI = CC[C@H](C)[C@H](NC)C(=O)O; Sar = CNCC(=O)O

Columns and labels:
Sprague Dawley (SD) rats = assay: Acute food intake and body weight in normal Sprague Dawley rats; type: in vivo; conditions: vehicle-corrected, dose 30 nmol/kg sc, once; for Body weight loss (%) after 96 hours: mean ± SEM, n = 8
Procedure: Sprague Dawley (SD) rats were obtained from Taconic A/S, Denmark. The animals arrived at least 7 days before the study start to allow acclimatization to experimental conditions. From arrival and throughout the study, the rats were housed in groups of 2 (n = 2) in a light-, temperature- and humidity-controlled room (reversed 12/12 h light/dark cycle: lights turned off during day-time and on during night-time; temperature 20-22°C; relative humidity 50-80%). Animals had access ad libitum to food (Altromin™ 1324, Brogaarden A/S, Gentofte, Denmark) and water (domestic quality tap water with citric acid added to pH ∼ 3.6) during the entire study. Stratification of rats was based on body weight (BW) on a cage-by-cage basis; mean BWs per cage were used as the basis for pairing four cages together in a group (n = 8 per group). A vehicle group and positive control group were included in each set of tests. Rats were dosed subcutaneously (sc) once in the morning immediately before turning off the lights, using a body weight-corrected dose of peptide (30 nmol/kg). Dosing volume was 5 ml/kg. Food intake was recorded manually at t = 0 (pre-dose) and at t = 4, 7, 10, 24, 48, 72 and 96 hours after dosing. Body weight was measured daily.
Statistical analyses on body weight were performed using GraphPad™ Prism version 5. The measured parameters were compared using unpaired t tests. Differences were considered statistically significant at p < 0.05. Data are means ± SEM; n =8.

[1] = target: T1, human calcitonin receptor (hCTR2) (Homo sapiens, UniProt P30988); assay: hCTR2 assay: induction of cAMP (AlphaScreen cAMP Assay kit) in COS7 cells expressing hCTR2; type: cell-based
T1 construct: expressed in transfected cells
T1 sequence (P30988 25-474): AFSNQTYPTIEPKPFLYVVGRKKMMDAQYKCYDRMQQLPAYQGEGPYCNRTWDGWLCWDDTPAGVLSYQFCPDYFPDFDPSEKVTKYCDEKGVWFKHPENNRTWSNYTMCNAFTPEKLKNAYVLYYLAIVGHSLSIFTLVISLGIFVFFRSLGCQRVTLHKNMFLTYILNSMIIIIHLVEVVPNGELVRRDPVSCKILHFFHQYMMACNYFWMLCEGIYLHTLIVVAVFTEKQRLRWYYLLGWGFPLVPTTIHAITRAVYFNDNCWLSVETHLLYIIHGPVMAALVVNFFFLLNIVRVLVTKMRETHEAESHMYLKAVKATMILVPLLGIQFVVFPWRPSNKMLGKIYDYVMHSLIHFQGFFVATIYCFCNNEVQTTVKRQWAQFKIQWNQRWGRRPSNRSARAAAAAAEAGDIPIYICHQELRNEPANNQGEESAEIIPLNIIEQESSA
In short: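 Cells were seeded one day ahead, washed, then exposed to rising peptide concentrations for 15 min at 37° C in the presence of 100 µM IBMX. After lysis for 10 min at room temperature, cAMP was quantified by AlphaScreen and EC50 values derived by 4PL fitting.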

[2] = cAMP induction in COS7 cells expressing hCTR2, average of a minimum of 3 determinations, read-out: hCTR2 EC50

Row | SMILES | EC50 [1, 2] | Food intake inhibition (%) after 48 hours (Sprague Dawley (SD) rats) | Body weight loss (%) after 96 hours (Sprague Dawley (SD) rats) | EC50 [1]
1 | CC[C@H](C)[C@@H](C(=O)N[C@@H](CC(C)C)C(=O)N[C@@H](CO)C(=O)N[C@@H](CO)C(=O)N[C@H](C(=O)N[C@@H](CC(N)=O)C(=O)N[C@H](C(=O)NCC(=O)N[C@@H](CO)C(=O)N[C@@H](CC(N)=O)C(=O)N[C@H](C(=O)N1CCC[C@H]1C(N)=O)[C@@H](C)O)C(C)C)[C@@H](C)O)N(C)C(=O)[C@H](C)NC(=O)CN(C)C(=O)[C@H](Cc1ccccc1)NC(=O)[C@H](CC(N)=O)NC(=O)[C@H](CC(N)=O)NC(=O)[C@H](CO)NC(=O)[C@H](CO)NC(=O)[C@H](CCCNC(=N)N)NC(=O)[C@H](Cc1c[nH]cn1)NC(=O)[C@H](CC(C)C)NC(=O)[C@H](Cc1ccccc1)NC(=O)[C@H](CCC(=O)O)NC(=O)[C@H](C)NC(=O)[C@H](CC(C)C)NC(=O)[C@H](CCCNC(=N)N)NC(=O)[C@H](CCC(N)=O)NC(=O)[C@@H](NC(=O)[C@H](C)NC(=O)[C@@H]1CSSC[C@H](NC(=O)[C@H](CCCCN)NC(=O)[C@H](CCCCN)NC(=O)CC[C@H](NC(=O)CCCCCCCCCCCCCCCCCCC(=O)O)C(=O)O)C(=O)N[C@@H](CC(N)=O)C(=O)N[C@@H]([C@@H](C)O)C(=O)N[C@@H](C)C(=O)N[C@@H]([C@@H](C)O)C(=O)N1)[C@@H](C)O [Compound 87, [19CD]-isoGlu-KKC()NTATC()ATQRLAEFLHRSSNNF-Gly(Me)-A-Ile(Me)-LSSTNVGSNTP-NH2] ({C20 diacid-γGlu}-KKCNTATCATQRLAEFLHRSSNNF[Sar]A[NMeI]LSSTNVGSNTP-NH2; disulfide 3-8) | – | 98% | 10 ± 1.2% | 0.046 nM
2 | CC[C@H](C)[C@@H](C(=O)N[C@@H](CC(C)C)C(=O)N[C@@H](CO)C(=O)N[C@@H](CO)C(=O)N[C@H](C(=O)N[C@@H](CC(N)=O)C(=O)N[C@H](C(=O)NCC(=O)N[C@@H](CO)C(=O)N[C@@H](CC(N)=O)C(=O)N[C@H](C(=O)N1C[C@H](O)C[C@H]1C(N)=O)[C@@H](C)O)C(C)C)[C@@H](C)O)N(C)C(=O)[C@H](C)NC(=O)CN(C)C(=O)[C@H](Cc1ccccc1)NC(=O)[C@H](CC(N)=O)NC(=O)[C@H](CC(N)=O)NC(=O)[C@H](CO)NC(=O)[C@H](CO)NC(=O)[C@H](CCCNC(=N)N)NC(=O)[C@H](Cc1c[nH]cn1)NC(=O)[C@H](CC(C)C)NC(=O)[C@H](Cc1ccccc1)NC(=O)[C@H](CCC(=O)O)NC(=O)[C@H](C)NC(=O)[C@H](CC(C)C)NC(=O)[C@H](CCCNC(=N)N)NC(=O)[C@H](CCC(N)=O)NC(=O)[C@@H](NC(=O)[C@H](C)NC(=O)[C@@H]1CSSC[C@H](NC(=O)[C@H](CCCNC(=N)N)NC(=O)CC[C@H](NC(=O)CCCCCCCCCCCCCCCCCCC(=O)O)C(=O)O)C(=O)N[C@@H](CC(N)=O)C(=O)N[C@@H]([C@@H](C)O)C(=O)N[C@@H](C)C(=O)N[C@@H]([C@@H](C)O)C(=O)N1)[C@@H](C)O [Compound 105, [19CD]-isoGlu-RC()NTATC()ATQRLAEFLHRSSNNF-Gly(Me)-A-Ile(Me)-LSSTNVGSNT-Hyp-NH2] ({C20 diacid-γGlu}-RCNTATCATQRLAEFLHRSSNNF[Sar]A[NMeI]LSSTNVGSNT[Hyp]-NH2; disulfide 2-7) | – | – | 7 ± 2.4% | 0.083 nM

Continued, in another order:

Row | EC50 [1, 2] | SMILES | Food intake inhibition (%) after 48 hours (Sprague Dawley (SD) rats) | Body weight loss (%) after 96 hours (Sprague Dawley (SD) rats) | EC50 [1]
3 | 0.072 nM | CC[C@H](C)[C@@H](C(=O)N[C@@H](CC(C)C)C(=O)N[C@@H](CO)C(=O)N[C@@H](CO)C(=O)N[C@H](C(=O)N[C@@H](CC(=O)O)C(=O)N[C@H](C(=O)NCC(=O)N[C@@H](CO)C(=O)N[C@@H](CC(=O)O)C(=O)N[C@H](C(=O)N1CCC[C@H]1C(N)=O)[C@@H](C)O)C(C)C)[C@@H](C)O)N(C)C(=O)[C@H](C)NC(=O)CN(C)C(=O)[C@H](Cc1ccccc1)NC(=O)[C@H](CO)NC(=O)[C@H](CO)NC(=O)[C@H](CO)NC(=O)[C@H](CO)NC(=O)[C@H](CCCNC(=N)N)NC(=O)[C@H](Cc1c[nH]cn1)NC(=O)[C@H](CC(C)C)NC(=O)[C@H](Cc1ccccc1)NC(=O)[C@H](CCC(=O)O)NC(=O)[C@H](C)NC(=O)[C@H](CC(C)C)NC(=O)[C@H](CCCNC(=N)N)NC(=O)[C@H](CCC(N)=O)NC(=O)[C@@H](NC(=O)[C@H](C)NC(=O)[C@@H]1CSSC[C@H](NC(=O)[C@H](CCCNC(=N)N)NC(=O)CC[C@H](NC(=O)CCCCCCCCCCCCCCCCCCC(=O)O)C(=O)O)C(=O)N[C@@H](CC(N)=O)C(=O)N[C@@H]([C@@H](C)O)C(=O)N[C@@H](C)C(=O)N[C@@H]([C@@H](C)O)C(=O)N1)[C@@H](C)O [Compound 73, [19CD]-isoGlu-RC()NTATC()ATQRLAEFLHRSSSSF-Gly(Me)-A-Ile(Me)-LSSTDVGSDTP-NH2] ({C20 diacid-γGlu}-RCNTATCATQRLAEFLHRSSSSF[Sar]A[NMeI]LSSTDVGSDTP-NH2; disulfide 2-7) | 93% | 11 ± 1.8% | –
4 | 0.19 nM | CC[C@H](C)[C@@H](C(=O)N[C@@H](CC(C)C)C(=O)N[C@@H](CO)C(=O)N[C@@H](CO)C(=O)N[C@H](C(=O)N[C@@H](CCC(=O)O)C(=O)N[C@H](C(=O)NCC(=O)N[C@@H](CO)C(=O)N[C@@H](CCC(=O)O)C(=O)N[C@H](C(=O)N1CCC[C@H]1C(N)=O)[C@@H](C)O)C(C)C)[C@@H](C)O)N(C)C(=O)[C@H](C)NC(=O)CN(C)C(=O)[C@H](Cc1ccccc1)NC(=O)[C@H](CO)NC(=O)[C@H](CO)NC(=O)[C@H](CO)NC(=O)[C@H](CO)NC(=O)[C@H](CCCNC(=N)N)NC(=O)[C@H](Cc1c[nH]cn1)NC(=O)[C@H](CC(C)C)NC(=O)[C@H](Cc1ccccc1)NC(=O)[C@H](CCC(=O)O)NC(=O)[C@H](C)NC(=O)[C@H](CC(C)C)NC(=O)[C@H](CCCNC(=N)N)NC(=O)[C@H](CCC(N)=O)NC(=O)[C@@H](NC(=O)[C@H](C)NC(=O)[C@@H]1CSSC[C@H](NC(=O)[C@H](CCCNC(=N)N)NC(=O)CC[C@H](NC(=O)CCCCCCCCCCCCCCCCCCC(=O)O)C(=O)O)C(=O)N[C@@H](CC(N)=O)C(=O)N[C@@H]([C@@H](C)O)C(=O)N[C@@H](C)C(=O)N[C@@H]([C@@H](C)O)C(=O)N1)[C@@H](C)O [Compound 76, [19CD]-isoGlu-RC()NTATC()ATQRLAEFLHRSSSSF-Gly(Me)-A-Ile(Me)-LSSTEVGSETP-NH2] ({C20 diacid-γGlu}-RCNTATCATQRLAEFLHRSSSSF[Sar]A[NMeI]LSSTEVGSETP-NH2; disulfide 2-7) | 100% | 11 ± 1.2% | –
5 | 0.07 nM | CC[C@H](C)[C@@H](C(=O)N[C@@H](CC(C)C)C(=O)N[C@@H](CO)C(=O)N[C@@H](CO)C(=O)N[C@H](C(=O)N[C@@H](CCC(=O)O)C(=O)N[C@H](C(=O)NCC(=O)N[C@@H](CO)C(=O)N[C@@H](CCC(=O)O)C(=O)N[C@H](C(=O)N1CCC[C@H]1C(N)=O)[C@@H](C)O)C(C)C)[C@@H](C)O)N(C)C(=O)[C@H](C)NC(=O)CN(C)C(=O)[C@H](Cc1ccccc1)NC(=O)[C@H](CO)NC(=O)[C@H](CO)NC(=O)[C@H](CCCNC(=N)N)NC(=O)[C@H](Cc1c[nH]cn1)NC(=O)[C@H](CC(C)C)NC(=O)[C@H](Cc1ccccc1)NC(=O)[C@H](CCC(=O)O)NC(=O)[C@H](C)NC(=O)[C@H](CC(C)C)NC(=O)[C@H](CCCNC(=N)N)NC(=O)[C@H](CCC(N)=O)NC(=O)[C@@H](NC(=O)[C@H](C)NC(=O)[C@@H]1CSSC[C@H](NC(=O)[C@H](CCCNC(=N)N)NC(=O)CC[C@H](NC(=O)CCCCCCCCCCCCCCCCCCC(=O)O)C(=O)O)C(=O)N[C@@H](CC(N)=O)C(=O)N[C@@H]([C@@H](C)O)C(=O)N[C@@H](C)C(=O)N[C@@H]([C@@H](C)O)C(=O)N1)[C@@H](C)O [Compound 82, [19CD]-isoGlu-RC()NTATC()ATQRLAEFLHRSSF-Gly(Me)-A-Ile(Me)-LSSTEVGSETP-NH2] ({C20 diacid-γGlu}-RCNTATCATQRLAEFLHRSSF[Sar]A[NMeI]LSSTEVGSETP-NH2; disulfide 2-7) | 93% | 13 ± 1.0% | –
